Series [1] in a line: stability (content) of ingredients included in the Salvia miltiorrhiza extract on storage. The series is classed as physicochemical. Conditions: for Content (mg/g) of ingredient after 5 days of storage at room temperature of extract: 5 days at room temperature; for Content (mg/g) of ingredient in Salvia miltiorrhiza extract: before storage. On the procedure: When the Salvia miltiorrhiza extract was stored at 95° C. for 0 hour, 1 hour, 2 hours, 3 hours, 4 hours and 6 hours, in order to confirm whether the stability of 5 types of ingredients of which the female hormone regulatory ability has been confirmed in Example embodiment 2-1 above was maintained, the ingredient contents of the stored samples were analyzed by time. In addition, when the Salvia miltiorrhiza extract was stored at room temperature for 1 day, 2 days, 3 days, 4 days and 5 days, the stability of the ingredients was confirmed through analysis of the contents of 5 types of ingredients included in the Salvia miltiorrhiza extract.
In addition, results of comparing the content of each ingredient included in the Salvia miltiorrhiza extract at various concentrations (0, 50, 70, and 100% ethanol) and the content after 5 days of storage at room temperature were shown together in Table 1 below.

Series [2] relates to ER (female hormone receptor). The series is described as follows: female hormone receptor (ER) expression in MCF-7 BUS cell line by real-time PCR. It is filed as cell-based. Conditions: each ingredient 10 μg/mL, 72 hours. On the procedure: Ingredients included in the Salvia miltiorrhiza extract obtained in Example embodiment 1 were confirmed, and in ingredients cryptotanshinone, danshensu, isotanshinone, salvianolic acid B, and tanshinone IIA, female hormone regulating ability was confirmed. An MCF-7 BUS cell line used in the experiment was received from Tufts University in the United States, and incubated in a CO2 incubator maintained at 37° C. and 5% CO2 by using a Dulbecco modified eagle medium (DMEM) (Gibco, USA) added with 10% fetal bovine serum (Gibco, USA) and 1% penicillin/streptomycin (Gibco, USA).
In the experiment, in order to evaluate the female hormone regulatory ability, the sensitivity to estrogen, one of the female hormones, was measured using the MCF-7 BUS cell line, and first, the MCF-7 BUS cell line was dispensed at 1×10^5 cells/well in a 60 mm culture dish, and then incubated in a CO2 incubator maintained at 37° C. and 5% CO2.
After incubation for 24 hours, each ingredient was treated at a concentration of 10 μg/mL, and 17β-Estradiol (E2) was treated with 10^−10 M as a positive control.
At this time, each primer was prepared by Takara, and ER was prepared with Forward primer: […] […] A CT value obtained through RT-PCR was converted into ΔCT, and this ΔCT value was analyzed through a change rate of an experimental group with respect to the control group, which was illustrated in FIG. 1.
On the technique in general: Quantitative PCR measures a nucleic acid by following its amplification.

The test system of series [3] is natural aging-induced menopausal animal model. The series is described as follows: antidepressant efficacy verification experiment in natural aging-induced menopausal animal model (summary). It is filed as in vivo. Conditions: antidepressant refractory animal model. An excerpt: Accordingly, the Salvia miltiorrhiza extract of the present disclosure may be administered to patients with resistance to benzodiazepine or imipramine, and may be used to treat depression that is resistant to the drug.

Molecules are shown by their SMILES.

With `Cc1coc2c1C(=O)c1ccc3c(C)cccc3c1C2=O` [Isotanshinone], the “Content (mg/g) of ingredient after 5 days of storage at room temperature of extract” value (from here on “Content (mg/g) of ingredient … of extract”) in series [1] (extract made with 0% EtOH) is recorded as 0.99 mg/g; in series [1] (extract made with 50% EtOH), 5.62 mg/g; in series [1] (extract made with 70% EtOH) it was 12.11 mg/g; in series [1] (extract made with 100% EtOH) it was 10.33 mg/g. In addition, the “Content (mg/g) of ingredient in Salvia miltiorrhiza extract” value (shortened to “Content … in Salvia miltiorrhiza extract”) came to 2.22 mg/g in series [1] (extract made with 0% EtOH), 12.31 mg/g in series [1] (extract made with 50% EtOH), 14.23 mg/g in series [1] (extract made with 70% EtOH) and 12.22 mg/g in series [1] (extract made with 100% EtOH).
For `O=C(/C=C/c1ccc(O)c2c1[C@H](C(=O)O[C@H](Cc1ccc(O)c(O)c1)C(=O)O)[C@@H](c1ccc(O)c(O)c1)O2)O[C@H](Cc1ccc(O)c(O)c1)C(=O)O` [Salvianolic acid B], the “Content (mg/g) of ingredient … of extract” value stood at 18.33 mg/g in series [1] (extract made with 0% EtOH), 26.21 mg/g in series [1] (extract made with 50% EtOH), 23.21 mg/g in series [1] (extract made with 70% EtOH) and 15.27 mg/g in series [1] (extract made with 100% EtOH). Further, the “Content … in Salvia miltiorrhiza extract” value in series [1] (extract made with 0% EtOH) is recorded as 21.2 mg/g; in series [1] (extract made with 50% EtOH), 38.23 mg/g; in series [1] (extract made with 70% EtOH) it was 33.1 mg/g; in series [1] (extract made with 100% EtOH) it was 20.3 mg/g.
In the case of `O=C(O)[C@H](O)Cc1ccc(O)c(O)c1` [Danshensu], the “female hormone receptor regulating effect (ER mRNA change rate, FIG. 1)” value in series [2] is listed as “most remarkable female hormone receptor regulating effect”. Further, the “Content (mg/g) of ingredient … of extract” value in series [1] (extract made with 0% EtOH) came out at 0.32 mg/g; in series [1] (extract made with 50% EtOH) it was 1.22 mg/g; in series [1] (extract made with 70% EtOH), 24.19 mg/g; in series [1] (extract made with 100% EtOH), 17.33 mg/g. For the same compound, the “Content … in Salvia miltiorrhiza extract” value in series [1] (extract made with 0% EtOH) is 0.34 mg/g; in series [1] (extract made with 50% EtOH), 1.28 mg/g; in series [1] (extract made with 70% EtOH), 25.17 mg/g; in series [1] (extract made with 100% EtOH), 18.32 mg/g.
In the case of `CN(C)CCCN1c2ccccc2CCc2ccccc21` [imipramine], the “antidepressant effect in natural aging-induced menopausal animal model” value in series [3] is “insufficient antidepressant effect”.
Turning to `Cc1coc2c1C(=O)C(=O)c1c-2ccc2c1CCCC2(C)C` [Tanshinone IIA], the “Content (mg/g) of ingredient … of extract” value is 0.65 mg/g in series [1] (extract made with 0% EtOH), 4.11 mg/g in series [1] (extract made with 50% EtOH), 4.33 mg/g in series [1] (extract made with 70% EtOH) and 5.24 mg/g in series [1] (extract made with 100% EtOH). Also, the “Content … in Salvia miltiorrhiza extract” value is on record as 1.33 mg/g in series [1] (extract made with 0% EtOH), 5.21 mg/g in series [1] (extract made with 50% EtOH), 7.22 mg/g in series [1] (extract made with 70% EtOH) and 8.33 mg/g in series [1] (extract made with 100% EtOH).

For the origin of these results see US20230390352A1, “COMPOSITION COMPRISING SALVIA MILTIORRHIZA EXTRACT AS ACTIVE INGREDIENT FOR PREVENTION AND TREATMENT OF DEPRESSION IN MENOPAUSAL WOMEN” (UNDBIO.CO.,LTD, priority 2020, published 2023).
